Measured values as given in patent US20230398068A1 (priority 2020, published 2023).

Experiments:
[1] = Transfer rate assessment, liquid formulation to aerosol (Cambridge filter pad, LC-HR-MS); conditions: 30 puffs collected
[2] = Thermal decomposition during thermal aerosolization (LC-HR-MS); conditions: LC-HR-MS spectra of aerosol sample
[3] = test system: novel coronavirus (2019-nCoV); conditions: cited from earlier work
[4] = Aerosol particle size distribution (Aerodynamic Particle Sizer); conditions: thermal aerosolization 200-220° C., 40 mg/mL in propylene glycol
[5] = Frisk-Holmberg et al., Cui et al.; cited from earlier work
[6] = test system: SARS-CoV-2 clinically isolated strain; conditions: Vero cells, 24 hours, Yao et al.; cited from earlier work
[7] = test system: 3D organotypic human bronchial cultures; experiment: Transepithelial electrical resistance (TEER); conditions: post 24 h exposure

SMILES	amount per puff in aerosol ([1]; 100 mg/mL hydroxychloroquine liquid formulation)	decomposition during thermal aerosolization [2]	amount per puff in aerosol ([1]; 40 mg/mL chloroquine liquid formulation)	EC50 ([3]; block of COVID-19 infection in vitro, Wang et al., read-out: half-maximal effective concentration (EC50))	in vitro EC50 ([3]; values from Wang et al.)	in vitro EC90 ([3]; values from Wang et al.)	median aerodynamic diameter of aerosol particles [4]	plasma concentration at which no adverse reactions are observed [5]	warning limit plasma concentration at which 80% of the subjects showed adverse effects [5]	EC50 [6]	TEER ([7]; 50 puffs)	TEER ([7]; 100 puffs)
CCN(CCO)CCCC(C)Nc1ccnc2cc(Cl)ccc12 (stereo not shown) [hydroxychloroquine]	330.32 µg	no decomposition										
CCN(CC)CCCC(C)Nc1ccnc2cc(Cl)ccc12 (stereo not shown) [chloroquine]		no decomposition	149.69 µg	1.13 µM	0.362 mg/L	2.208 mg/L	1.3 μm	0.4 µg/mL	800 ng/mL	23.9 µM	very low TEER values for two replicates	no overall effect
